In paper PMC5427921, “PRL3 phosphatase active site is required for binding the putative magnesium transporter CNNM3” (Scientific Reports, 2017) one finds Km data, which are given here for one compound.

For this assay, the target named is T1, PRL3 (Homo sapiens, UniProt O75365).
T1 construct: gene PTP4A3; residues 1-169 in pET15b, His6 tag with thrombin site, N-terminal Gly-Ser-His extension left; wild type; expressed in E. coli
In words: phosphorylation of catalytic Cys104 followed on Phos-tag SDS-PAGE. Format: biochemical. To be noted: no magnesium; 43 µM PRL3, 20 mM HEPES, 100 mM NaCl, 10 mM DTT, pH 7.0; 30 °C and room temperature; estimate from concentration dependence; covalent phosphocysteine formed.

Usually Km stands for the concentration of substrate that gives half-maximal velocity.

T1 sequence (O75365 1-169): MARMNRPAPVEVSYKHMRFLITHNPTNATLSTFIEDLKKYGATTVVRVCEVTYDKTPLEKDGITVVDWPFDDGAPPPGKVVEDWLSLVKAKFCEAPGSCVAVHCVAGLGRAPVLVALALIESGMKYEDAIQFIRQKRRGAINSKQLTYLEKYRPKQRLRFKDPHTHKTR

With `Nc1ncnc2c1ncn2[C@@H]1O[C@H](COP(=O)(O)OP(=O)(O)OP(=O)(O)O)[C@@H](O)[C@H]1O` [ATP], the Km is > 2000 µM.
